Legend:
[1] = molecular target: sucrase (Homo sapiens, UniProt P14410); conditions: enzyme involved in digestion of carbohydrates; cited from earlier work
[2] = Rectal temperature in cold room (thermogenic function); type: in vivo; conditions: 24-week old mice on chow diet, 25 mg/(kg*day), cold room 6° C., no food, measured every hour, FIG. 10
Method: Rectal temperature was measured at 8 a.m. (t=0) on 24-week old mice fed a chow diet, supplemented with either water (Veh) or Quinic Acid (25 mg/(kg*day). Then, mice were placed on a cold room (6° C.), with no access to food, and rectal temperature was measured every hour.

[3] = Glucose excursion after intraperitoneal insulin (insulin response); type: in vivo, mice; conditions: 6 hr fast, 25 mg/(kg*day)
Method: Glucose excursion curves were determined after an intraperitoneal injection of insulin (0.3 U/Kg) after a 6 hr fast on 22 week-old mice fed a chow diet, supplemented with either water (Veh) or Quinic Acid (25 mg/(kg*day). Glucose excursion curves were determined after an intraperitoneal injection of insulin (0.75 U/Kg) after a 6 hr fast on 22 week-old mice fed a high-fat diet, supplemented with either water (Veh) or Quinic Acid (25 mg/(kg*day).

[4] = Glucose excursion after intraperitoneal glucose (glucose tolerance); type: in vivo; conditions: 12 hr fasted 20 week-old mice on chow diet or HFD, 25 mg/(kg*day), i.p. glucose 2 g/kg, FIG. 7
Method: Glucose excursion curves were determined after an intraperitoneal injection of glucose (2 g/kg) on 12 hr fasted 20 week-old mice fed a chow diet or a HFD, supplemented with either water (Veh) or Quinic Acid (25 mg/(kg*day).

[5] = Body lean and fat mass composition by Echo-MRI; type: in vivo, mice; conditions: 25 mg/(kg*day), FIG. 4
Method: Body lean and fat mass composition of 18 week-old mice fed on chow diet or high-fat diet, supplemented with either water (Veh) or Quinic Acid (25 mg/(kg*day) was measured by nuclear magnetic resonance using an Echo-Magnetic Resonance Imaging (Echo-MRI) system (Echo Medical System LCC).

[6] = Oxygen consumption and RER in CLAMS (indirect calorimetry); type: in vivo; conditions: 18 week-old mice on chow diet, 25 mg/(kg*day), dark phase, FIG. 6
[7] = Treadmill endurance, increasing speed protocol; type: in vivo; conditions: 26 week-old high-fat fed mice, 25 mg/(kg*day), FIG. 11
Method: 26 week-old mice were place on a treadmill and endurance was evaluated by using a increasing speed protocol, as described previously (Lagouge et al., 2006, PMID: 17112576). The tests were performed on low and high fat-fed mice supplemented with either water (Veh) or Quinic Acid (25 mg/(kg*day).

[8] = Body weight evolution on chow or high-fat diet; type: in vivo, mice; conditions: 25 mg/(kg*day), FIG. 3
Method: Body weight evolution on mice fed on chow diet or high-fat diet, supplemented with either water (Veh) or Quinic Acid (25 mg/(kg*day) was calculated. At 10 weeks of age, 60 male mice were randomly distributed in 6 groups (n=10 per group) and provided the different diets: LFD (Control, Low Dose and High Dose) or HFD (Control, Low Dose and High Dose). Mice were maintained for 8 weeks on their corresponding diets before phenotyping took place. During this time, body weight and food intake was monitored weekly.

[9] = system: lipase; conditions: enzyme involved in digestion of lipids; cited from earlier work
[10] = Food intake (tolerance / food aversion) of mice on supplemented diet; type: in vivo
Method: Mice were fed a low fat diet supplemented with either water (Veh) or quinic acid at low dose (25 mg/(kg*day)) or high dose (HD, 100 mg/(kg*day). Food intake was calculated between 12 and 18 weeks of age by weighing the food placed on the tray of the cage at the start of the week and the amount remaining 5 days later.
Mice were fed a high fat diet (60% fat) supplemented with either water (Veh) or quinic acid at low dose (25 mg/(kg*day)) or high dose (HD, 100 mg/(kg*day). Calculations for food intake were made in the same manner as for mice on chow diet.
Powder low fat diet (LFD; Research Diets Inc.; Ref: D12450J) was reconstituted into ˜20 gram pellets using 100 ml of water/kg of food. In addition to normal low fat diet pellets, two additional groups were made by adding quinic acid (QA) to the water used for reconstitution. A first group (low dose) was created, where 0.25 g of QA were added per Kg of food (this means, 0.25 grams per 100 ml of water). In a second group (high dose), 1 g of QA was added per Kg of food (this means, 1 gram per […] of water). […]
At 10 weeks of age, 60 male mice were randomly distributed in 6 groups (n=10 per group) and provided the different diets: LFD (Control, Low Dose and High Dose) or HFD (Control, Low Dose and High Dose). […] During this time, body weight and food intake was monitored weekly.

[11] = system: maltase; conditions: enzyme involved in digestion of carbohydrates; cited from earlier work
[12] = molecular target: T1, α-amylase (Sus scrofa, UniProt P00690); conditions: compared to caffeic and chlorogenic acids (Narita et al. 2009); cited from earlier work
T1 sequence (P00690 16-511): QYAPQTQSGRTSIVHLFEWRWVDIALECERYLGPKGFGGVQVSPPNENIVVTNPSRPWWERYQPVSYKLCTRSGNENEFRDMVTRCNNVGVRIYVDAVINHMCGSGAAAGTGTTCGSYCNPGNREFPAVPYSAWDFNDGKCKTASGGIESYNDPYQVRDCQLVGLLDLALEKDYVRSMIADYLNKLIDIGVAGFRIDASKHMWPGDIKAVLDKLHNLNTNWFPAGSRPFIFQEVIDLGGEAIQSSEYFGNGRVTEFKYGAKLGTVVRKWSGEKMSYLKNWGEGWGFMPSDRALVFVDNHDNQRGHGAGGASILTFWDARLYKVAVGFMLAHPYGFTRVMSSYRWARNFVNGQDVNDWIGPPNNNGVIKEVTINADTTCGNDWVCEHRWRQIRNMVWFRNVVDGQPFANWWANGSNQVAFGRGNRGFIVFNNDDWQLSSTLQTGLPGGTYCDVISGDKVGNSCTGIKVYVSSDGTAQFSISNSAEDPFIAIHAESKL

sucrase, sequence (P14410 whole entry, species assumed): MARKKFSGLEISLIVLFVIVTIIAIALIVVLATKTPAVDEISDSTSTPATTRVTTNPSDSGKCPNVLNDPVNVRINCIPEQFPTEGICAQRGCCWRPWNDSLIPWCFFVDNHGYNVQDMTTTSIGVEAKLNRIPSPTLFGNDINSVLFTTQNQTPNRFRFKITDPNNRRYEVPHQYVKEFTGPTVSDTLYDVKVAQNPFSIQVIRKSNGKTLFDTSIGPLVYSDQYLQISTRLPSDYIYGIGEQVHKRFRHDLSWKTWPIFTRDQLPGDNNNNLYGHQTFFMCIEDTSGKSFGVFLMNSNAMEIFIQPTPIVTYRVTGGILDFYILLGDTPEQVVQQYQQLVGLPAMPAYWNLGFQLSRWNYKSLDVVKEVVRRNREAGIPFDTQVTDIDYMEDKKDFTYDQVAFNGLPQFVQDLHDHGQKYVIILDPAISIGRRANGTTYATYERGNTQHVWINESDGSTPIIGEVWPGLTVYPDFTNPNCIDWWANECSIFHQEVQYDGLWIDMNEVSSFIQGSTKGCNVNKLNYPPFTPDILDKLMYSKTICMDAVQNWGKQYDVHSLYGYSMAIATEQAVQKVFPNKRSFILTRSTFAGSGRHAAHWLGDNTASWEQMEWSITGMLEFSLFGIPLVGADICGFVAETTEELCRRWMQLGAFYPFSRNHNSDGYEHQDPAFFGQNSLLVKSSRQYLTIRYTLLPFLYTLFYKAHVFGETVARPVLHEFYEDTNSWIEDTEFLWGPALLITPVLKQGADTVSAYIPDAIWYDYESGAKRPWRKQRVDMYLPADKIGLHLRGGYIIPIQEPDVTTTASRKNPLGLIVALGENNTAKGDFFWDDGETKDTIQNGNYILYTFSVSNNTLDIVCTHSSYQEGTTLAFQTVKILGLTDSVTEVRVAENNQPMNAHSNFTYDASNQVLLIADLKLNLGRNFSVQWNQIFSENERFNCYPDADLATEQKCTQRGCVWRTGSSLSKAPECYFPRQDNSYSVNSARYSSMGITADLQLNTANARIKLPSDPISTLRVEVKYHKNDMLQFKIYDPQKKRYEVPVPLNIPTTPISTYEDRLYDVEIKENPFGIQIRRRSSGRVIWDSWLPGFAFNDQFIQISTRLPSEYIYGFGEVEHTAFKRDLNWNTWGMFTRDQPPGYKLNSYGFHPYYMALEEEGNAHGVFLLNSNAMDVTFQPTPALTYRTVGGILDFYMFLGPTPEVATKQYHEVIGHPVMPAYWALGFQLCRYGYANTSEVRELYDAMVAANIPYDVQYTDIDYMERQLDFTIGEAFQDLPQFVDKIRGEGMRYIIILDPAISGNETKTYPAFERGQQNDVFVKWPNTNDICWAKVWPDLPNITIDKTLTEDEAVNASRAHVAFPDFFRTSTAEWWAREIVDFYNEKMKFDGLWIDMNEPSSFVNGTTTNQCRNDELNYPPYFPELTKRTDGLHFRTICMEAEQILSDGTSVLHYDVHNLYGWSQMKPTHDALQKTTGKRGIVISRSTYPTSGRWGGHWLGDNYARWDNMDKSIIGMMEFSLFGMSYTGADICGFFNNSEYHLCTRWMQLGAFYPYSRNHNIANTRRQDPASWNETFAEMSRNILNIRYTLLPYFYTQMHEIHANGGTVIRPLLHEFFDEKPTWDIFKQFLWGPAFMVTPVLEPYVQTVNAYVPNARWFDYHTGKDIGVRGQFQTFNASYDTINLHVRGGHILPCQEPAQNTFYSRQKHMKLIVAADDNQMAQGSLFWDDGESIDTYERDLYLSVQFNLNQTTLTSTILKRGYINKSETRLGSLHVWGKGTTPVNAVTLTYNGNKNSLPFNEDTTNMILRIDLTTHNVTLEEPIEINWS

Compound: O=C(O)[C@]1(O)C[C@@H](O)[C@@H](O)[C@H](O)C1 [Quinic acid]
- effect on sucrase [1]: no effect
- thermogenic function (rectal temperature) [2]: enhanced thermogenic function
- insulin response ([3]; 22 week-old chow-fed mice, i.p. insulin 0.3 U/Kg, FIG. 8): did not alter insulin response
- basal glycemia ([3]; 22 week-old high-fat fed mice, FIG. 9): lowered basal glycemia
- insulin response ([3]; 22 week-old high-fat fed mice, i.p. insulin 0.75 U/Kg, FIG. 9): did not significantly affect insulin response
- glucose tolerance [4]: moderately enhanced glucose tolerance
- fat deposition (fat mass, Echo-MRI) ([5]; 18 week-old mice on chow diet): reduced fat deposition
- fat deposition (fat mass, Echo-MRI) ([5]; 18 week-old mice on high-fat diet): reduced fat deposition
- carbohydrate metabolism (total carbohydrate oxidation = 4.55*VO2-3.21*VCO2) [6]: enhanced
- energy consumption (oxygen consumption) [6]: enhanced energy consumption
- endurance performance (treadmill) [7]: potentiates endurance performance
- body weight gain ([8]; mice on high-fat diet): reduced weight gain
- body weight gain ([8]; mice on low-fat (chow) diet): reduced weight gain
- effect on lipase [9]: no effect
- food aversion (food intake) ([10]; mice on chow (low fat) diet, high dose 100 mg/(kg*day), 12-18 weeks of age, FIG. 1): caused food aversion
- food aversion (food intake) ([10]; mice on high fat diet (60% fat), low dose 25 or high dose 100 mg/(kg*day), FIG. 2): did not cause food aversion
- effect on maltase [11]: no effect
- inhibition of α-amylase [12]: poor inhibitor
